Laboratory results: patent publication US20070274929A1, “ORAL COMPOSITION COMPRISING CHLORHEXIDINE AND MALTITOL OR ERYTHRITOL OR A MIXTURE THEREOF” (priority 2000, published 2007)

Test: Masking the bitterness of chlorhexidine, panel of trained taste assessors (sip-and-spit, labelled magnitude line scale)
Format: in vivo
Settings: for difference of the bitterness of the CHXG/inhibitor mixture from the 0.1% CHXG reference (analysis of variance): ANOVA at the 5% level, reference 0.1% CHXG in 8% ethanol-water; for difference of the bitterness of the CHXG/inhibitor mixture from the 0.1% CHXG reference (analysis of variance) / % suppression of bitterness of 0.1% CHXG: n=18; for % suppression of bitterness of 0.1% CHXG: 8% w/w ethanol in water, reference bitterness set at 70 on line scale 0-100; for masking the bitter taste of chlorhexidine compared with xylitol: inhibitors at 2 & 4% w/w, 0.1% CHXG
Description: The efficacy of maltitol, erythritol and xylitol to mask the bitter taste of chlorhexidine digluconate (CHXG) was evaluated using a panel of trained taste assessors.
All test solutions were made up in still mineral water. All tasting sessions were carried out at room temperature (20° C.). Samples were made up w/v (unless otherwise specified) one day before tasting and stored in the refrigerator overnight, then allowed to equilibrate to room temperature the next day before serving.
Eighteen panellists volunteered for the study. The panellists were first screened for their taste acuity using basic identification ranking techniques. 0.20% sodium chloride, 0.054% citric acid, 0.8% sucrose, 0.04% caffeine and 0.15% potassium alum were used to determine their ability to sense and identify saltiness, sourness, sweetness, bitterness and astringency, respectively. The detection and identification thresholds for bitterness were then measured using eight increasing concentrations of quinine hydrochloride (over a range of 0-0.0012%). Panellists were also instructed to rank four random concentrations of caffeine in increasing order of bitterness intensity. A similar experiment was done using quinine hydrochloride. All panellists performed well in those tasks.
The screened panellists were then asked to assess the bitterness intensities of the chlorhexidine mixtures using a “Labelled magnitude line scale” (LMS) as defined by Green et al., Chemical Senses, 1996, 21, 323-334. Solutions were made up containing the bitter inhibitors, 0.1% w/w CHXG, 8% w/w ethanol in water. The following concentrations of inhibitors were used:
Two samples were presented at any one time, one of which was the reference (0.1% CHXG in 8% ethanol-water). Sample presentation was randomised and was duplicated during the course of the study.
The “sip-and-spit” method was used for tasting CHXG solutions. Panellists were instructed to sip 5 ml sample, swirl it around their mouth and spit it out immediately before judging its bitterness intensity. This technique was expected to take 3-4 seconds.
Panellists were instructed to taste the reference first and memorise its bitter intensity. This intensity was assigned the number 70 on the line scale marked 0-100. Panellists were asked to wait until they could no longer feel any bitterness in their mouths (approximately 10 min) before tasting the second solution, whose intensity they then ranked in proportion to the intensity of the reference on the same line scale. Panellists were provided with mineral water to cleanse their palates.
Analysis of Variance (ANOVA) at the 5% level of significance was performed using the EXCEL software to find out whether there were any significant differences between the CHXG reference and the CHXG/inhibitor mixtures. A Fisher Least Significant Difference (LSD) test (O'Mahony M, 1986, Sensory Evaluation of Food—Statistical Methods and Procedures, Marcel Dekker, Inc, New York) was carried out on those samples where a significant difference had been found, to identify which sample means differ from the reference.

[1] = inhibitor 2% w/w in 0.1% w/w CHXG
[2] = inhibitor 4% w/w in 0.1% w/w CHXG

With `OC[C@@H](O)[C@@H](O)CO` [Erythritol] the “difference of the bitterness of the CHXG/inhibitor mixture from the 0.1% CHXG reference (analysis of variance)” value was “significantly different”, the “% suppression of bitterness of 0.1% CHXG” value [1] was 29.2% and the “% suppression of bitterness of 0.1% CHXG” value [2] was 28.2%. For the same compound, the “masking the bitter taste of chlorhexidine compared with xylitol” value was “more effective than xylitol”.
For `OC[C@@H](O)[C@@H](O[C@H]1O[C@H](CO)[C@@H](O)[C@H](O)[C@H]1O)[C@H](O)[C@@H](O)CO` [Maltitol], the “difference of the bitterness of the CHXG/inhibitor mixture from the 0.1% CHXG reference (analysis of variance)” value was “significantly different”, the “% suppression of bitterness of 0.1% CHXG” value [1] was 26.9% and the “% suppression of bitterness of 0.1% CHXG” value [2] was 32.6%. For the same compound, the “masking the bitter taste of chlorhexidine compared with xylitol” value was “more effective than xylitol”.
In the case of `OC[C@@H](O)[C@H](O)[C@@H](O)CO` [Xylitol, reference compound], the “% suppression of bitterness of 0.1% CHXG” value [1] is reported as 14.3% and the “% suppression of bitterness of 0.1% CHXG” value [2] is reported as 13.6%.
